From patent US12213984B2, “Immunoregulatory agent” (KYUSHU UNIVERSITY, NATIONAL UNIVERSITY CORPORATION, priority 2015, dated 2025)

How the values were obtained:
Trio = molecular target: T1, Trio (Homo sapiens, UniProt O75962); assay: in-vitro GEF assay, Rac activation by Trio (Experimental Example 1); type: biochemical
T1 construct: a DH-PH domain of the Trio protein and the Tiam protein; Histidine-SUMO (N); made in house; host or cells: E. coli Arctic express DE3 (pET28a)
Protocol: The selectivity of the effect of inhibiting the GEF of DOCK2 by cholesterol 3-sulfate was examined. All of DOCK2, Trio, and Tiam are GEFs activating Rac. In the presence of serially diluted cholesterol 3-sulfate, the Rac activation ability of a DOCK2 protein, a Trio protein, and a Tiam protein was measured by in-vitro GEF assay. For the in-vitro GEF assay, a labeled GTP (trade name, “Bodipy-FL-GTP”, manufactured by Invitrogen) was used, because it has a property of increasing fluorescence intensity when binds to Rac by the action of GEF. […]
During the reaction, the change in the fluorescence intensity of Bodipy-FL-GPT was monitored using a spectrofluorometer Enspire manufactured by PerkinElmer Inc (excitation wavelength: 488 nm, emission wavelength: 514 nm). By calculation, the values obtained by the measurement were corrected such that the fluorescence intensity became 0 at a reaction starting point (0 second).
Then, by using software (trade name “GraphPad Prism 5”, manufactured by GraphPad Software Inc.), an approximation curve was created which is obtained in a case where the calculated corrected values are plotted on the y-axis and time (t) is plotted on the x-axis. […]

[1] = molecular target: T2, binding of the DHR-2 domain of DOCK2 to Rac (Homo sapiens, UniProt Q92608); assay: pull-down assay using GST-Rac beads, binding of DOCK2 DHR-2 to Rac; details: 150 μM
T2 construct: 1 μg of a protein composed of the lobe B and the lobe C of the DHR-2 domain of DOCK2; made in house; host or cells: E. coli Arctic express DE3 (DOCK2 fragment); E. coli BL21 DE3 (GST-Rac)
T2 sequence (Q92608 1196-1622): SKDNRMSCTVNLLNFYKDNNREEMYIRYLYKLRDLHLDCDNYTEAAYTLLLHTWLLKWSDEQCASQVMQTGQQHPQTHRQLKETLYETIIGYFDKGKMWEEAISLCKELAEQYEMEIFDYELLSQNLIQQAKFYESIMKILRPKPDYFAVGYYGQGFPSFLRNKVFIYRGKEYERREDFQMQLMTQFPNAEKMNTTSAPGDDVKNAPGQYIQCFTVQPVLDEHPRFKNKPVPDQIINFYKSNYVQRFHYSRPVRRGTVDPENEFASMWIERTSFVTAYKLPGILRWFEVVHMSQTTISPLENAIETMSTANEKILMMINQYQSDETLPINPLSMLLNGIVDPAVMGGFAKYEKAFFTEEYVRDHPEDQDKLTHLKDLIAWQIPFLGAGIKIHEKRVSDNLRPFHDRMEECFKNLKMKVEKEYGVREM

[2] = test system: neutrophils isolated from the mouse bone marrow; assay: neutrophil migration assay 1 (EZ-TAXIScan, fMLP gradient, pretreated cells); type: cell-based; details: pretreated 1 hour, fMLP gradient 0 to 10 μM
Protocol: The influence of cholesterol 3-sulfate on a migration speed of neutrophils was examined. More specifically, in the presence of cholesterol 3-sulfate at a predetermined concentration or in the presence of DMSO alone (vehicle control), neutrophils isolated from the mouse bone marrow were incubated for 1 hour at room temperature in 20 mM HEPES-NaOH (pH 7.3)-0.1% BSA-containing RPMI-1640 (Taxiscan medium). The concentration of DMSO was adjusted such that the final concentration of DMSO became 0.2% in all samples.
Then, the pre-treated cells were loaded on wells of one side of the chamber of EZ-TAXIScan (Effector Cell Institute, Inc). After 1 μL of fMLP in a Taxiscan medium was added at a concentration of 10 μM to wells of the other side 260 μm distant from the above wells, neutrophils were allowed to migrate in the presence of a fMLP gradient (0 to 10 μM). Phase-contrast micrographs were obtained for 20 minutes at an interval of 30 seconds, and the trace and speed of neutrophils were analyzed by using manual tracking of the Image J program and a chemotaxis and migration tool.

[3] = molecular target: T3, protein composed of the lobe B and the lobe C of the DHR-2 domain of DOCK2 (Homo sapiens, UniProt Q92608); assay: ELISA binding of steroid compounds to DHR-2 domain of DOCK2; details: steroid immobilized at 100 μg/ml, protein 2 μg/mL
T3 construct: the HIS-SUMO tagged protein composed of the lobe B and the lobe C of the DHR-2 domain of DOCK2; made in house; host or cells: E. coli Arctic express DE3 (pET28a)
T3 sequence (Q92608 1196-1622): T2 sequence (Q92608 1196-1622)
Protocol: First, various steroid compounds prepared at 100 μg/ml by using 100% methanol were added in an amount of 50 μL to a 96-well plate for ELISA (trade name “Immulon 4HBX”, Thermo Scientific) and immobilized for 1 hour in a clean bench by air drying. Subsequently, 5% bovine serum albumin (BSA) diluted with TBS (20 mM Tris-HCl-150 mM NaCl, pH 7.5) was added thereto in an amount of 180 μL, the steroid compounds were incubated for 6 hours at 4° C., and the wells were blocked. Thereafter, each of the wells was rinsed three times with 180 μL of PBS-0.01% Tween-20. […] Then, each of the wells was rinsed three times with 180 μL of PBS-0.01% Tween-20. Subsequently, horseradish peroxidase (HRP)-labeled histidine probe (Thermo Scientific) diluted 5,000× was added in an amount of 100 μL to each well, and allowed to incubate for 1.5 hours at room temperature. Thereafter, each of the wells was rinsed three times with 180 μL of PBS-0.01% Tween-20, a 3,3′,5,5′-tetramethyl benzidine (TMB) solution (Thermo Scientific) as an HRP chromogenic substrate was added in an amount of 100 μL to each well so as to initiate a chromogenic reaction, and a stop solution (0.16 M sulfuric acid, Thermo Scientific) was added in an amount of 100 μL to each well so as to stop the reaction. Then, the absorbance at a wavelength of 450 nm was measured.

CC(C)CCC[C@@H](C)[C@H]1CC[C@H]2[C@@H]3CC=C4C[C@@H](OS(=O)(=O)O)CC[C@]4(C)[C@H]3CC[C@]12C [C3S, cholesterol 3-sulfate]
IC50 (Trio): > 300 µM | inhibition of binding of DOCK2 DHR-2 to GST-Rac (Western blotting) [1]: specifically inhibits the binding of DHR-2 to Rac | migration of neutrophils (migration speed) in response to fMLP [2]: markedly inhibited | binding to the protein composed of lobe B and lobe C of the DHR-2 domain of DOCK2 (ELISA, absorbance 450 nm) [3]: specifically binds
